One series concerns human plasma proteins. In words: Measurement of plasma protein binding (PPB) by equilibrium dialysis. Format: in vitro ADME. The note with it: human plasma; for Human plasma protein binding PPB (% free): equilibrium dialysis, 37° C., pH 7.4. As for the experimental part: (§1) Measurement of Plasma Protein Binding (PPB)
(§2) The extent of binding of a drug to plasma proteins is a crucial factor in determining its in vivo potency and pharmacokinetics. The method used for determining the extent of plasma protein binding involves equilibrium dialysis of the compound between plasma and buffer at 37° C. The concentrations of compound in the plasma and buffer are then determined using high pressure liquid chromatography (HPLC) with mass spectroscopy (MS) detection. The dialysis method involves the use of mixtures of up to 10 compounds simultaneously. It has been shown that at the concentrations used in the assay, there is no significant difference in the results when compounds are run singly or in mixtures.
(§3) Membranes (molecular weight cut-off 5000) were first prepared by soaking in the dialysis buffer for a minimum of 1 hour. The dialysis membranes were then mounted into the dialysis cells.
(§4) Stock solutions of compounds in dimethylsulphoxide (DMSO) were prepared. This, and all subsequent liquid handling steps, were normally done using a Tecan liquid handling robot. Mixtures of up to five compounds were used. The concentration of each compound in a mixture was normally 1 mM. The mixtures were chosen such that each mixture contains compounds that all have at least a 5 unit difference in molecular weight from one another.
(§5) Frozen plasma (EDTA anticoagulant) was normally used for the human plasma binding experiment. The pH of the plasma was adjusted to 7.4 using 1 M HCl immediately before use.
(§6) The stock DMSO solution of compounds (7.5 μL) was then added to the dialysis cells along with plasma (750 μl). This was done in duplicate for each mixture. This gave a 1% DMSO in plasma solution with each compound at a concentration of 10 μM (if the stock solution was the standard 1 mM). The dialysis cells were then sealed, secured in a Dianorm rotator unit and equilibrated for 18 hours at 37° C. While the dialysis cells were being equilibrated, the DMSO stock solutions were used for generating optimised HPLC/MS methods for use in the final analysis of the plasma and buffer samples.
(§7) After equilibration, the cells were opened and a Tecan liquid handling robot was used to remove aliquots from the plasma and buffer sides of each of the dialysis cells. Blank plasma was then added to the buffer samples and buffer added to the plasma samples such that each sample was in a matrix of 6-fold diluted plasma. Standards were then prepared from the DMSO stock solutions and blank 6-fold diluted plasma. The concentrations of the four standards were normally 50 nM, 150 nM, 500 nM and 2500 nM.
(§8) The samples and standards were then analysed using HPLC with MS detection, which allows deconvolution of the mixtures of compounds. The HPLC method involved a forward flushing column switching technique that allows direct injection of the diluted plasma.
(§9) The chromatograms were processed using MassLynx software that automatically i 5 calculates a calibration curve for each compound in a mixture and then interpolates the concentrations of buffer and plasma samples. These concentrations still need corrections for the dilution of the plasma. The percentage bound was calculated from the MassLynx data using the following equation: […]
(§10) The factor of 1.2 in the numerator accounts for the small dilution of the aqueous samples with plasma. The factor of 6 in the denominator serves to correct for the 6-fold dilution of the plasma samples with buffer.
(§11) The % free (100-% bound) for each compound was calculated from the concentration data, and then recorded.

Assay in series [1]: as above
The note with it: human, plasma, pH 7.4, human plasma, equilibrium dialysis, 37° C., pH 7.4; read-out: Human plasma protein binding PPB (% free). The series is classed as in vitro ADME, human. As for the experimental part:
as §1, §2, §3, §4, §5, §6, §7, §8, §9, §10, §11
On the technique in general: In equilibrium dialysis only unbound substance equilibrates across the membrane.

Series [2] in a line: Bioavailability (F) in the rat. The note with it: plasma, 3 mg/kg; male rat, oral vs iv AUC, dose normalised. Format: in vivo. The source says: Bioavailability (F) in the Rat
This describes the methods used to obtain in vivo pharmacokinetic parameters in the male rat. It is applicable for use with any compound but may need modification based on such parameters as solubility, assay sensitivity, anticipated clearance and half-life, when the default formulation, dose level or sampling intervals may be inappropriate. The method described here represents a standard approach from which justified and documented modifications can be made. This method also allows for single compounds or mixtures (cassettes) to be administered.
A standard dose solution of 1 mg·mL^−1 was prepared. The recommended dose vehicle (if the compound was not sufficiently soluble in isotonic saline) was 50% PEG 400:50% sterile water. The required mass of compound was dissolved in the PEG400 before addition of the water. […]
The concentration of the analyte(s) were determined in plasma quantitative by mass spectrometry.
Pharmacokinetic data analysis and tabulation was achieved using WinNonlin and Excel. […] Bioavailability (F) was calculated from the ratio of the iv and oral AUC (the integral of the plasma concentration time curve) once dose normalised.

The structures appear in SMILES notation.

Turning to `Cc1ccc(CSc2nc(N[C@H](C)CO)cc(NS(=O)(=O)N3CCC3)n2)c(F)c1C` [Example 41], the “Human plasma protein binding PPB (% free)” value with human plasma proteins is on record as 0.6 % free.

`Cc1cccc(CSc2nc(N[C@H](C)CO)cc(NS(=O)(=O)N3CCC3)n2)c1F` [Example 40]: in series [1], the fraction unbound at 18 h, 10 µM was < 0.002.

Consider `C[C@@H](Nc1cc(NS(=O)(=O)N2CCC2)nc(SCc2cccc(F)c2F)n1)[C@@H](O)CO` [Example 1, N-(2-[(2,3-difluorobenzyl)thio]-6-{[(1R,2R)-2,3-dihydroxy-1-methylpropyl]amino}pyrimidin-4-yl)azetidine-1-sulfonamide], for which the bioavailability (as a rule, dose-corrected exposure relative to a reference, in per cent) in series [2] is 49%. In addition, in series [1], the fraction unbound at 18 h, 10 µM is 0.019. In addition, in the series on human plasma proteins, the “free fraction in human plasma (in words)” value was “favourable free fraction in human plasma”.

In series [2], `Cc1cccc(CSc2nc(N[C@H](C)CO)cc(NS(C)(=O)=O)n2)c1F` [Example 39] returned a bioavailability of 44%. In addition, the fraction unbound at 18 h, 10 µM in series [1] worked out at 0.01.

Regarding `Cc1ccc(CSc2nc(N[C@H](C)CO)cc(NS(=O)(=O)N3CCC3)n2)c(F)c1C` [Example 42], the “Human plasma protein binding PPB (% free)” value with human plasma proteins is <0.2 % free.

Values taken from patent US20100016275A1, “NOVEL COMPOUND 395” (priority 2008, published 2010).
